Data as given in patent US12054488B2, “Pyrazolopyrimidine compound and preparation method therefor and use thereof in preparation of anti-cancer drug” (SUZHOU RAYMON PHARMACEUTICALS COMPANY, LTD., priority 2018, dated 2024).

target: PI3K-alpha enzyme (Homo sapiens (Human), UniProt P42336); assay: PI3-Kinase (human) HTRF Assay kit, PI3K alpha enzyme IC50 determination; format: biochemical; details: ATP 10 μM, PIP2 10 μM, 1% DMSO, 30 min at room temperature, double holes per concentration, read-out: half inhibitory concentration (IC50) on PI3K-alpha
Protocol: • 4× Reaction Buffer was diluted to 1× with ddH2O, and 1M DTT was added to make the final concentration of 5 mM. Prepare fresh before each use. For example, to prepare 10 mL 1× Reaction Buffer, adding 2.5 mL 4× Reaction Buffer, 50 μL 1 M DTT, and 7.45 mL ddH2O. Throughout the experiment, freshly prepared 1× Reaction Buffer was used to prepare ATP working solution, substrate and enzyme mixed working solution, etc.
• The compound to be tested was dissolved in DMSO to 1 mM as a storage solution, and then diluted with DMSO in a 4-fold ratio for a total of 10 concentration points. 1 μL of each was added to 24 μL 1× Reaction Buffer. 5 μL of each diluted solution was added into a 384-well plate and contained 1% DMSO.
• 1× reaction buffer was used to prepare 2×PIP2 working solution to make the final concentration of 20 μM and PIP2 reaction final concentration of 10 μM, for example, to prepare 1 ml 1× reaction buffer/PIP2 working solution, add 20 μL of PIP2 to 980 μL 1× reaction buffer. This working solution should be prepared with 0.1-0.2 ml more to meet the control usage and dead volume.
• The kinase was diluted with 2×PIP2 working solution, and the concentration of the kinase working solution was 10 ng/well.
• That is, 2×PIP2 working solution.
• 10 mM ATP was diluted to 40 μM with 1× reaction buffer. In a 20 μL kinase reaction system, the concentration of ATP was 10 μM. For example, to prepare 2 ml ATP working solution, take 8 μL 10 mM ATP and add it to 1992 μL 1× reaction buffer.
• Stop A and Stop B were mixed in a ratio of 3:1 and can be used after at least 2 hours at room temperature.
• DM C, DM A and DM B were mixed in a ratio of 18:1:1, and can be used after at least 2 hours at room temperature.
• Emission Ratio (ER)=[…] Emission signal/620 nm Emission signal • The average emission intensity ratio (Emission Ratio) of the 100% inhibition control is recorded as: ER100% • The average Emission Ratio of the 0% inhibition control is recorded as: ER0%
• The inhibition rate is calculated with the following formula: Inhibition rate=(ERsample−ER0%)/(ER100%−ER0%)×100% [(ERpositive−ERsample)/(ERpositive−ERnegative)*100%]

PI3K-alpha enzyme, sequence (P42336 whole entry): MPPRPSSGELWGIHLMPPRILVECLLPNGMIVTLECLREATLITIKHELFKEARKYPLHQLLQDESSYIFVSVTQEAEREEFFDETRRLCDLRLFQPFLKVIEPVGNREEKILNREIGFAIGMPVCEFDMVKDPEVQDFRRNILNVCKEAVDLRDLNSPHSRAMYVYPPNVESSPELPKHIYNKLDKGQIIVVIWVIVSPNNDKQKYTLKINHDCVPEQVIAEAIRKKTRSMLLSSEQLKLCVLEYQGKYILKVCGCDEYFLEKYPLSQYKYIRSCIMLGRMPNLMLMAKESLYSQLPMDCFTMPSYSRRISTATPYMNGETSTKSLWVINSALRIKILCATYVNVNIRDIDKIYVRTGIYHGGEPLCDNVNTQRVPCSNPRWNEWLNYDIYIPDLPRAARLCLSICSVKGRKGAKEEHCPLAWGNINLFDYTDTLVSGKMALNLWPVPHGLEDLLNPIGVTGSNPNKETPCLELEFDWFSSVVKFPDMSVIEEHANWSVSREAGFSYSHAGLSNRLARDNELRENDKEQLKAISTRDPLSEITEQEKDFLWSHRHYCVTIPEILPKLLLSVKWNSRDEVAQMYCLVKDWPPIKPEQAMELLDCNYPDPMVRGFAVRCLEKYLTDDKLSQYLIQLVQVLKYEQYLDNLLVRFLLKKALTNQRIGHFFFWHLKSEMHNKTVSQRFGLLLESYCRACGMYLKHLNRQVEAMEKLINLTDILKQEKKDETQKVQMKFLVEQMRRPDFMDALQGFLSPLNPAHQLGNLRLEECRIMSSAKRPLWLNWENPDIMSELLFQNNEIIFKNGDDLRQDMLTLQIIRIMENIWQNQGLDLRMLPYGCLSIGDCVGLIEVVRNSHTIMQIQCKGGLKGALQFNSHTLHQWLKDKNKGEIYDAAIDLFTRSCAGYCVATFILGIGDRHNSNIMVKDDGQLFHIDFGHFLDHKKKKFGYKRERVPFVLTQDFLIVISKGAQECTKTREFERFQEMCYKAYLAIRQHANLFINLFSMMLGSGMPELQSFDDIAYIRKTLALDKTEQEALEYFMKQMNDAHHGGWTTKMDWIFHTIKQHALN
PI3K-alpha enzyme, sequence (P27986 whole entry partner): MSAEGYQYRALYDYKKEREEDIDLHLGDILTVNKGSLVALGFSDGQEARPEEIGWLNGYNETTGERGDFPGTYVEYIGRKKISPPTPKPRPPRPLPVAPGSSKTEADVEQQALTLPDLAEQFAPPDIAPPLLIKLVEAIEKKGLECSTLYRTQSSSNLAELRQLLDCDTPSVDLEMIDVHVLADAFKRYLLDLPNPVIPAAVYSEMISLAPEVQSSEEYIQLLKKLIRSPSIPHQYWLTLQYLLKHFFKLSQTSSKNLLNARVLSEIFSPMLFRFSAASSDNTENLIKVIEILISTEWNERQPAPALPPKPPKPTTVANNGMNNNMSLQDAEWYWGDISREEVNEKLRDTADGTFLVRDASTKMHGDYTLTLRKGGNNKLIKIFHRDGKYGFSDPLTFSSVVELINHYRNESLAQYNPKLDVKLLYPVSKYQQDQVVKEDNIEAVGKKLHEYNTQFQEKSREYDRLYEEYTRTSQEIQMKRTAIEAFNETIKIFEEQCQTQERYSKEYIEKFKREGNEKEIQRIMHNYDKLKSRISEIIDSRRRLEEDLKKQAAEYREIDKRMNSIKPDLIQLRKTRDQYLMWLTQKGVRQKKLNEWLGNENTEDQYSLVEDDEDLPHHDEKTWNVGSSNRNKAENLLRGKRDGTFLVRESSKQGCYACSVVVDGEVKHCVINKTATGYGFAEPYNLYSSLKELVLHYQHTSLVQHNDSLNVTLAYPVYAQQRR

IC50 | Compound
10.7 nM | Nc1n[nH]c2c(N3CCOCC3)nc(-c3ccc(NC(=O)Nc4ccc(CO)cc4)cc3)nc12 [Compound I-1, 1-(4-(3-amino-7-morpholino-1H-pyrazolo[4,3-d]pyrimidin-5-yl)phenyl)-3-(4-(hydroxymethyl)phenyl)urea]
89.6 nM | CC(C)(O)c1ccc(NC(=O)Nc2ccc(-c3nc(N4CCOCC4)c4[nH]nc(N)c4n3)cc2)cc1 [Compound I-2, 1-(4-(3-amino-7-morpholino-1H-pyrazolo[4,3-d]pyrimidin-5-yl)phenyl)-3-(4(2-hydroxypropan-2-yl)phenyl)urea]
89.1 nM | CS(=O)(=O)NC(=O)Cc1ccc(NC(=O)Nc2ccc(-c3nc(N4CCOCC4)c4[nH]nc(N)c4n3)cc2)cc1 [Compound I-3, 2-(4-(3-(4-(3-amino-7-morpholino-1H-pyrazolo[4,3-d]pyrimidin-5-yl)phenyl)ureido)phenyl)-N-(methylsulfonyl)acetamide]
108 nM | CC1(C)C(=O)Nc2cc(NC(=O)Nc3ccc(-c4nc(N5CCOCC5)c5[nH]nc(N)c5n4)cc3)ccc21 [Compound I-4, 1-(4-(3-amino-7-morpholino-1H-pyrazolo[4,3-d]pyrimidin-5-yl)phenyl)-3-(3,3-dimethyl-2-oxoindolin-6-yl)urea]
228 nM | Nc1n[nH]c2c(N3CCOCC3)nc(-c3ccc(NC(=O)Nc4ccc(CO)c(C(F)(F)F)c4)cc3)nc12 [Compound I-5, 1-(4-(3-amino-7-morpholino-1H-pyrazolo[4,3-d]pyrimidin-5-yl)phenyl)-3-(4-(hydroxymethyl)-3-(trifluoromethyl)phenyl)urea]
40.9 nM | Nc1n[nH]c2c(N3CCOCC3)nc(-c3ccc(NC(=O)Nc4ccc(COCCN5CCOCC5)cc4)cc3)nc12 [Compound I-6, 1-(4-(3-amino-7-morpholino-1H-pyrazolo[4,3-d]pyrimidin-5-yl)phenyl)-3-(4-((2-morpholinoethoxy)methyl)phenyl)urea]
